Inconclusive results and toxic doses are left out. No stated cut-off is given here; in the data, active means T/C of 150% or more; inactive means T/C below 125%.
Tested on: L1210 leukemia ip in BDF1 mice, survival T/C
Assay: NCI In Vivo Anticancer Drug Screen. Data for tumor model L1210 Leukemia (intraperitoneal) in B6D2F1 (BDF1) mice
Conditions: endpoint: mean survival time, higher = longer survival
Outline: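 Value reflects the ratio of survival in compound-treated mice to survival in vehicle-treated controls, with both groups carrying the same transplanted tumor.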

Measured: T/C

CCCCC(O)CCC (stereo unspecified)
inactive: dose: 100.0 mg/kg/injection, schedule: Q01DX009 (ip), vehicle: Klucel (hydroxypropylcellulose) (HPC) 96 % of control | dose: 100.0 mg/kg/injection, schedule: Q01DX009 (ip), vehicle: saline with Tween-80 98 % of control | dose: 100.0 mg/kg/injection, schedule: Q04DX003 (ip), vehicle: Klucel (hydroxypropylcellulose) (HPC) 98 % of control | dose: 100.0 mg/kg/injection, schedule: Q04DX003 (ip), vehicle: saline with Tween-80 100 % of control | dose: 200.0 mg/kg/injection, schedule: Q01DX009 (ip), vehicle: Klucel (hydroxypropylcellulose) (HPC) 107 % of control | dose: 200.0 mg/kg/injection, schedule: Q01DX009 (ip), vehicle: saline with Tween-80 95 % of control | dose: 200.0 mg/kg/injection, schedule: Q04DX003 (ip), vehicle: Klucel (hydroxypropylcellulose) (HPC) 93 % of control | dose: 200.0 mg/kg/injection, schedule: Q04DX003 (ip), vehicle: saline with Tween-80 98 % of control | dose: 400.0 mg/kg/injection, schedule: Q01DX009 (ip), vehicle: Klucel (hydroxypropylcellulose) (HPC) 95 % of control | dose: 400.0 mg/kg/injection, schedule: Q01DX009 (ip), vehicle: saline with Tween-80 91 % of control | dose: 400.0 mg/kg/injection, schedule: Q04DX003 (ip), vehicle: Klucel (hydroxypropylcellulose) (HPC) 93 % of control | dose: 400.0 mg/kg/injection, schedule: Q04DX003 (ip), vehicle: saline with Tween-80 98 % of control

Cn1nnnc1CCN(N)CCN(N)CCc1nnnn1C
inactive: dose: 100.0 mg/kg/injection, schedule: Q01DX001 (ip), vehicle: saline 103 % of control | dose: 200.0 mg/kg/injection, schedule: Q01DX001 (ip), vehicle: saline 92 % of control | dose: 400.0 mg/kg/injection, schedule: Q01DX001 (ip), vehicle: saline 95 % of control

Cc1cc(C)c(S(N)(=O)=O)c(C)c1
inactive: dose: 50.0 mg/kg/injection, schedule: Q04DX002 (ip), vehicle: Klucel (hydroxypropylcellulose) (HPC) 94 % of control | dose: 100.0 mg/kg/injection, schedule: Q04DX002 (ip), vehicle: Klucel (hydroxypropylcellulose) (HPC) 107 % of control | dose: 200.0 mg/kg/injection, schedule: Q04DX002 (ip), vehicle: Klucel (hydroxypropylcellulose) (HPC) 94 % of control

N#Cc1[nH]cnc1[N+]#N
inactive: dose: 3.0 mg/kg/injection, schedule: Q01DX009 (ip), vehicle: saline with Tween-80 103 % of control | dose: 3.0 mg/kg/injection, schedule: Q04DX003 (ip), vehicle: other 108 % of control | dose: 6.0 mg/kg/injection, schedule: Q01DX009 (ip), vehicle: saline with Tween-80 105 % of control | dose: 6.0 mg/kg/injection, schedule: Q04DX003 (ip), vehicle: other 103 % of control | dose: 12.0 mg/kg/injection, schedule: Q01DX009 (ip), vehicle: saline with Tween-80 91 % of control | dose: 12.0 mg/kg/injection, schedule: Q04DX003 (ip), vehicle: other 108 % of control | dose: 12.5 mg/kg/injection, schedule: Q01DX001 (ip), vehicle: other 94 % of control

C/C=C1/CC(C)C(O)(CO)C(=O)OCC2=CCN3CCC(OC1=O)C23 (stereo unspecified)
inactive: dose: 75.0 mg/kg/injection, schedule: Q01DX001 (ip), vehicle: carboxymethylcellulose (CMC) 100 % of control
